Test results published in article PMC12858467, “In vitro toxicokinetics and metabolic profiling of methoxycathinones and methylthiocathinones using human liver systems and hyphenated mass spectrometry” (Archives of Toxicology, 2025).

Tests used:
Type in all cases: in vitro ADME
Details in all cases: 30 min, 37 °C
CYP1A2 = target: T1, CYP1A2 (Homo sapiens, UniProt P05177); test: Monooxygenases activity screening, CYP1A2; set-up: key: +, detected; -, not detected
T1 construct: purchased Discovery Life Sciences (Huntsville, LA, USA); host or cells: baculovirus-infected insect cells (microsomes, Supersomes)
T1 sequence (P05177 1-516): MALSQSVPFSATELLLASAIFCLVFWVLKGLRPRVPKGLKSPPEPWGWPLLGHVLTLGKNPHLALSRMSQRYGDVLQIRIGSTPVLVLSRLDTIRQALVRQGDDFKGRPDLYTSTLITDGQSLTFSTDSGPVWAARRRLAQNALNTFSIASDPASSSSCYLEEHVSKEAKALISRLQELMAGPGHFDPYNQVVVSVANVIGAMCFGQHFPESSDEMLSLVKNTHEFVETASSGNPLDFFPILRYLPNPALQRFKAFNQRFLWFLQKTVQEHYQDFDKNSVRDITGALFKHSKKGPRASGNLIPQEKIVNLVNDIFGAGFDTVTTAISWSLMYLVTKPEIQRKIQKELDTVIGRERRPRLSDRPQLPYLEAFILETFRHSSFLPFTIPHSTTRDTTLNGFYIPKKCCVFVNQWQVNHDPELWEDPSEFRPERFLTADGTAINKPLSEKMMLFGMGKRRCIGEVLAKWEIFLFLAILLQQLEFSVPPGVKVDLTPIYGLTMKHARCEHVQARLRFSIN
Protocol: (§1) For incubations with CYP2A6 or CYP2C9, phosphate buffer was replaced with 90 mM Tris buffer, according to the manufacturer’s guideline. […] All incubations were done in duplicate and concentrations were fixed. Verapamil (25 µM) was incubated as a positive control.

CYP2A6 = target: T2, CYP2A6 (Homo sapiens, UniProt P11509); test: Monooxygenases activity screening, CYP2A6; set-up: key: +, detected; -, not detected
T2 construct: purchased Discovery Life Sciences (Huntsville, LA, USA); host or cells: baculovirus-infected insect cells (microsomes, Supersomes)
T2 sequence (P11509 1-494): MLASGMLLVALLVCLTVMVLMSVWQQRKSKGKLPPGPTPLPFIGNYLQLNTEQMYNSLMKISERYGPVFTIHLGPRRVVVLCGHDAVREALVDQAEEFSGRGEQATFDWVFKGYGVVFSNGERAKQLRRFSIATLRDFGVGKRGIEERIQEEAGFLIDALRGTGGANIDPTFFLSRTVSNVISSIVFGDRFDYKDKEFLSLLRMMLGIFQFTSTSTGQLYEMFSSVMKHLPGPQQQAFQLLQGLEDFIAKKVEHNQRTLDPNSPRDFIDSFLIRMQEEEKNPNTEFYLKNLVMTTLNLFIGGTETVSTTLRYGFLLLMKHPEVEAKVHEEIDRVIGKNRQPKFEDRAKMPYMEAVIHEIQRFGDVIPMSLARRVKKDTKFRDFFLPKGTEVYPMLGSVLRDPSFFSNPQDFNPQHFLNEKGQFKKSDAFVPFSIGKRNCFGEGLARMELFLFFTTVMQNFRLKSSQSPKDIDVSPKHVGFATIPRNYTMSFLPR
Protocol: as §1

CYP2B6 = target: T3, CYP2B6 (Homo sapiens, UniProt P20813); test: Monooxygenases activity screening, CYP2B6; set-up: key: +, detected; -, not detected
T3 construct: purchased Discovery Life Sciences (Huntsville, LA, USA); host or cells: baculovirus-infected insect cells (microsomes, Supersomes)
T3 sequence (P20813 1-491): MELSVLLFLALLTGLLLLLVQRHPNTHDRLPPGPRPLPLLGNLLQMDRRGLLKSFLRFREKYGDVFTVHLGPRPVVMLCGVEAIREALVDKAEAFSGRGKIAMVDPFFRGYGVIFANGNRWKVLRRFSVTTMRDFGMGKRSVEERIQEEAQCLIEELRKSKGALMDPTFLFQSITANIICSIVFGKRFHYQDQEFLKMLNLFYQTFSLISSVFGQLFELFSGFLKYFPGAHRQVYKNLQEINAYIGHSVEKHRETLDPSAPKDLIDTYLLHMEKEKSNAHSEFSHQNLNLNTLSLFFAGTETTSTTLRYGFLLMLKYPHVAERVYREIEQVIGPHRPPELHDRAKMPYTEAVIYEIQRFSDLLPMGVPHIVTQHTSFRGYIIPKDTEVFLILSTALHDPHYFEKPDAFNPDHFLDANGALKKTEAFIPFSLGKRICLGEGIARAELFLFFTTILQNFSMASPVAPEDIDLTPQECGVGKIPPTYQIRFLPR
Protocol: as §1

CYP2C8 = target: T4, CYP2C8 (Homo sapiens, UniProt P10632); test: Monooxygenases activity screening, CYP2C8; set-up: key: +, detected; -, not detected
T4 construct: purchased Discovery Life Sciences (Huntsville, LA, USA); host or cells: baculovirus-infected insect cells (microsomes, Supersomes)
T4 sequence (P10632 1-490): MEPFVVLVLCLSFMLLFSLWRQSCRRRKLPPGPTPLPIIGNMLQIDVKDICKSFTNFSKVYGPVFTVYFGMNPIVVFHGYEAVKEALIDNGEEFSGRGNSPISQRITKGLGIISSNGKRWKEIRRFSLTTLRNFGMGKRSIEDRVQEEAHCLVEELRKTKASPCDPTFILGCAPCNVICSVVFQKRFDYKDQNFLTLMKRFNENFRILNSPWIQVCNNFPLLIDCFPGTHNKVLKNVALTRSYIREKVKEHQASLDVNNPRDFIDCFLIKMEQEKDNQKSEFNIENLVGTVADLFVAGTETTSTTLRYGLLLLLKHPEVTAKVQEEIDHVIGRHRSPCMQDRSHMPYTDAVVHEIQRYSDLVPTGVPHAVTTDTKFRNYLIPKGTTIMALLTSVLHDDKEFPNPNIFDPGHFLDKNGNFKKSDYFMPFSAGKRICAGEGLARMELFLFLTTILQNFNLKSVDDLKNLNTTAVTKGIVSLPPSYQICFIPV
Protocol: as §1

CYP2C9 = target: T5, CYP2C9 (Homo sapiens, UniProt P11712); test: Monooxygenases activity screening, CYP2C9; set-up: key: +, detected; -, not detected
T5 construct: purchased Discovery Life Sciences (Huntsville, LA, USA); host or cells: baculovirus-infected insect cells (microsomes, Supersomes)
Protocol: as §1

CYP2C19 = target: T6, CYP2C19 (Homo sapiens, UniProt P33261); test: Monooxygenases activity screening, CYP2C19; set-up: key: +, detected; -, not detected
T6 construct: purchased Discovery Life Sciences (Huntsville, LA, USA); host or cells: baculovirus-infected insect cells (microsomes, Supersomes)
Protocol: as §1

CYP2D6 = target: T7, CYP2D6 (Homo sapiens, UniProt P10635); test: Monooxygenases activity screening, CYP2D6; set-up: key to one-step metabolite detected in CYP2D6 incubation: +, detected; -, not detected
T7 construct: purchased Discovery Life Sciences (Huntsville, LA, USA); host or cells: baculovirus-infected insect cells (microsomes, Supersomes)
Protocol: as §1

CYP2E1 = target: T8, CYP2E1 (Homo sapiens, UniProt P05181); test: Monooxygenases activity screening, CYP2E1; set-up: key: +, detected; -, not detected
T8 construct: purchased Discovery Life Sciences (Huntsville, LA, USA); host or cells: baculovirus-infected insect cells (microsomes, Supersomes)
Protocol: as §1

CYP3A4 = target: T9, CYP3A4 (Homo sapiens, UniProt P08684); test: Monooxygenases activity screening, CYP3A4; set-up: key: +, detected; -, not detected
T9 construct: purchased Discovery Life Sciences (Huntsville, LA, USA); host or cells: baculovirus-infected insect cells (microsomes, Supersomes)
Protocol: as §1

CYP3A5 = target: T10, CYP3A5 (Homo sapiens, UniProt P20815); test: Monooxygenases activity screening, CYP3A5; set-up: key: +, detected; -, not detected
T10 construct: purchased Discovery Life Sciences (Huntsville, LA, USA); host or cells: baculovirus-infected insect cells (microsomes, Supersomes)
Protocol: as §1

[1] = target: T11, flavin-containing monooxygenase 3 (FMO3) (Homo sapiens, UniProt P31513); test: Monooxygenases activity screening, FMO3; set-up: key: +, detected; -, not detected
T11 construct: purchased Discovery Life Sciences (Huntsville, LA, USA); host or cells: baculovirus-infected insect cells (microsomes, Supersomes)
T11 sequence (P31513 1-532): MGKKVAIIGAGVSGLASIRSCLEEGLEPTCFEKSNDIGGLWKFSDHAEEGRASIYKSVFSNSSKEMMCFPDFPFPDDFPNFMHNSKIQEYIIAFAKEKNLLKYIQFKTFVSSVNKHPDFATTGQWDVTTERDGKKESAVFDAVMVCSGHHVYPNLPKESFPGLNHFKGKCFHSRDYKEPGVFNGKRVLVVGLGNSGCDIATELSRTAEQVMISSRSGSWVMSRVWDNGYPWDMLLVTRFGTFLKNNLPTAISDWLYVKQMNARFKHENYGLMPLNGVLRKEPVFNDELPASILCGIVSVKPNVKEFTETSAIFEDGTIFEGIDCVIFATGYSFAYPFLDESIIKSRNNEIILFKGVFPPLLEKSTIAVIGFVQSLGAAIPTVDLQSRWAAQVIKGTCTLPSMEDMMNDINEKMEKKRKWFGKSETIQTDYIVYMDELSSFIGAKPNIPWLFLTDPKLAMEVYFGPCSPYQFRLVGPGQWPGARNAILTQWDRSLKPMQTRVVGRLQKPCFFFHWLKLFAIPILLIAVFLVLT
Protocol: as §1

[2] = substrate 4MeO-NE-BP 25 µM, Table S3.1
[3] = substrate 4MeO-αP-BP 25 µM, Table S3.2

T7 sequence (P10635 whole entry): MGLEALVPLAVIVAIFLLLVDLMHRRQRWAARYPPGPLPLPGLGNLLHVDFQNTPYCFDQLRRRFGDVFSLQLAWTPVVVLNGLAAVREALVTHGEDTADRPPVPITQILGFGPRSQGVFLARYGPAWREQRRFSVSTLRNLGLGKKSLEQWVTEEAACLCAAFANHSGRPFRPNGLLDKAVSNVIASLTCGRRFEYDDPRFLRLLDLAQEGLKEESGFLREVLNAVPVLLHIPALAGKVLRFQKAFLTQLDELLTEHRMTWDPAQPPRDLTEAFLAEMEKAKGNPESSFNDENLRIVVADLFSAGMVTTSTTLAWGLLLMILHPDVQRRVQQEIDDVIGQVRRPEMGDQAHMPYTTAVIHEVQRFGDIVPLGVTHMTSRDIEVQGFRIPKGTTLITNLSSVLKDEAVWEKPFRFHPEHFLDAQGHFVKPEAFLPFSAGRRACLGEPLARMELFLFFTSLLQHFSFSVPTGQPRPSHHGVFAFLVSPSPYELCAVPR
T10 sequence (P20815 whole entry): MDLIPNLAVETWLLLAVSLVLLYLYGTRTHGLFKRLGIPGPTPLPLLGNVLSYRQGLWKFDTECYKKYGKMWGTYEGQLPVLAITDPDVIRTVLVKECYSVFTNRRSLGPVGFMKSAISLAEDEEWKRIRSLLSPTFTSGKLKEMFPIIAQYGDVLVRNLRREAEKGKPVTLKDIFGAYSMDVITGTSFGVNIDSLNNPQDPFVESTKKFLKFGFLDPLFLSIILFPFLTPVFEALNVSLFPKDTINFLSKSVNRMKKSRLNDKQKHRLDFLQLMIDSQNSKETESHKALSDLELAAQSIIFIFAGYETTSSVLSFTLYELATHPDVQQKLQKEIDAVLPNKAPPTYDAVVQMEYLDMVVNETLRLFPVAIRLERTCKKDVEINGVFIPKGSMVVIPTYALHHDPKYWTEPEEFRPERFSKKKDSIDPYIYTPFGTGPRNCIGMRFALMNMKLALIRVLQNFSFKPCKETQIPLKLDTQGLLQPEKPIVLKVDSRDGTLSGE
T6 sequence (P33261 whole entry): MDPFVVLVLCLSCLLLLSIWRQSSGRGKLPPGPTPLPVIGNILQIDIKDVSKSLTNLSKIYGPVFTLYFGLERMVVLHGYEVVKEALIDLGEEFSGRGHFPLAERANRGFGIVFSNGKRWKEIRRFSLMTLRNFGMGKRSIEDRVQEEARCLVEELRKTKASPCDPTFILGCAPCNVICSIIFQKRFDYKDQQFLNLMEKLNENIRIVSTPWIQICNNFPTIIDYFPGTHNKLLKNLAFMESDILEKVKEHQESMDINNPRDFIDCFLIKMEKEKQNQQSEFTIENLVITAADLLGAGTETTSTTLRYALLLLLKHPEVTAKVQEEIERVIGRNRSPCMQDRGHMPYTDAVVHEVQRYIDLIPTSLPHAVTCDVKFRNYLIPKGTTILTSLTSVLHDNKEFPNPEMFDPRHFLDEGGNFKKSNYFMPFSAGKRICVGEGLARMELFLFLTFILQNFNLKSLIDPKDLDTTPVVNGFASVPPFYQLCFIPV
T5 sequence (P11712 whole entry): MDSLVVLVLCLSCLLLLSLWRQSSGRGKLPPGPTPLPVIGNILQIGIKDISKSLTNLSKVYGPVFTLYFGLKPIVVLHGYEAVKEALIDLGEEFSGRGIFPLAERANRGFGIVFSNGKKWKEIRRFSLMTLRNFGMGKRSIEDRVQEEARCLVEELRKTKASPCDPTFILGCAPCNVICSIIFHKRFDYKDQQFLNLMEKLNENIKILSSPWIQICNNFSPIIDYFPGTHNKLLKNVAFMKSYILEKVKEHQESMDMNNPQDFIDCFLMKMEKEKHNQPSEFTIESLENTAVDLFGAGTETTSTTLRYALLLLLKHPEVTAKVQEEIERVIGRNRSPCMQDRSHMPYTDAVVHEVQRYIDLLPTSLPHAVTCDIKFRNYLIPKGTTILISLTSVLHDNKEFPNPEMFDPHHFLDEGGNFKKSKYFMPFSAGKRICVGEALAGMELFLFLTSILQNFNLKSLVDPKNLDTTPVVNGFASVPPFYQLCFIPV
T8 sequence (P05181 whole entry): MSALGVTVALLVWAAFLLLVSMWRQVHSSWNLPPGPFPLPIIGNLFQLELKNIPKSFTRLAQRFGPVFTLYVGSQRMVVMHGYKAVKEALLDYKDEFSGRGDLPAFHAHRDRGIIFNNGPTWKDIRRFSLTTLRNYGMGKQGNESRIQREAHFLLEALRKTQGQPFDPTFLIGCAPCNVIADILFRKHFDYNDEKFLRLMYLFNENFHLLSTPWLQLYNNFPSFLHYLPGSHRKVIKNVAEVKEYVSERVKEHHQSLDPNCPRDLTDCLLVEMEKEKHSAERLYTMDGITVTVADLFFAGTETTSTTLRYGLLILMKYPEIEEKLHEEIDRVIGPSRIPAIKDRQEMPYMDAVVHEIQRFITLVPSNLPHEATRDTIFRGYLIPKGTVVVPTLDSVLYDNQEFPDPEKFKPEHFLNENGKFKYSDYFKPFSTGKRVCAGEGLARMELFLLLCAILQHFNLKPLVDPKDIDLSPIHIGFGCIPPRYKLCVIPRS
T9 sequence (P08684 whole entry): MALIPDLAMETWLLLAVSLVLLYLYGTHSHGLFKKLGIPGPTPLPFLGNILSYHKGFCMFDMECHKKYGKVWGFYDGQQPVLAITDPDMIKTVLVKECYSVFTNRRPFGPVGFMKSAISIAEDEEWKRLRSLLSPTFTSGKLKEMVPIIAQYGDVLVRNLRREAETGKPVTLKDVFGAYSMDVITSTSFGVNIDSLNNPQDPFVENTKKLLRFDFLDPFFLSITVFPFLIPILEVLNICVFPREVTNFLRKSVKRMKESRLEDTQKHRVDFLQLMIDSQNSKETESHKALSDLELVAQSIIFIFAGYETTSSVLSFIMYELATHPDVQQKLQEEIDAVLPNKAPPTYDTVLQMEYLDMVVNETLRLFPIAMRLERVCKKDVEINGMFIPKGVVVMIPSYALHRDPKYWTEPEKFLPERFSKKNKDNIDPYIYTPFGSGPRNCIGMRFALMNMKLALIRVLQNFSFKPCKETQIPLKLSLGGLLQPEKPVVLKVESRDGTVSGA

Row | SMILES | one-step metabolite detected in CYP1A2 incubation (CYP1A2; [2]) | one-step metabolite detected in CYP2A6 incubation (CYP2A6; [2]) | one-step metabolite detected in CYP2B6 incubation (CYP2B6; [2]) | one-step metabolite detected in CYP2C8 incubation (CYP2C8; [2]) | one-step metabolite detected in CYP2C9 incubation (CYP2C9; [2]) | one-step metabolite detected in CYP2C19 incubation (CYP2C19; [2]) | one-step metabolite detected in CYP2D6 incubation (CYP2D6; [2]) | one-step metabolite detected in CYP2E1 incubation (CYP2E1; [2]) | one-step metabolite detected in CYP3A4 incubation (CYP3A4; [2]) | one-step metabolite detected in CYP3A5 incubation (CYP3A5; [2]) | one-step metabolite detected in FMO3 incubation [1, 2] | further results
1 | CCNC(CC)C(=O)c1ccc(O)cc1 (centres unmarked) [MO1.1] | + | - | - | - | - | + | + | - | - | - | - | 
2 | CCC(N)C(=O)c1ccc(OC)cc1 (centres unmarked) [MO1.3] | - | - | + | - | - | + | - | - | + | - | - | 
3 | CCC(C(=O)c1ccc(OC)cc1)N(O)CC (centres unmarked) [MO1.4] | + | - | + | + | - | + | + | - | + | + | + | 
4 | CCC(C(=O)c1ccc(O)cc1)N1CCCC1 (centres unmarked) [MO2.2] |  |  |  |  |  |  |  |  |  |  |  | one-step metabolite detected in CYP1A2 incubation (CYP1A2; [3]): +; one-step metabolite detected in CYP2A6 incubation (CYP2A6; [3]): -; one-step metabolite detected in CYP2B6 incubation (CYP2B6; [3]): -; one-step metabolite detected in CYP2C8 incubation (CYP2C8; [3]): -; one-step metabolite detected in CYP2C9 incubation (CYP2C9; [3]): -; one-step metabolite detected in CYP2C19 incubation (CYP2C19; [3]): +; one-step metabolite detected in CYP2D6 incubation (CYP2D6; [3]): +; one-step metabolite detected in CYP2E1 incubation (CYP2E1; [3]): -; one-step metabolite detected in CYP3A4 incubation (CYP3A4; [3]): -; one-step metabolite detected in CYP3A5 incubation (CYP3A5; [3]): -; one-step metabolite detected in FMO3 incubation [1, 3]: -
